According to patent US12440571B2, “Immune agonists” (SHENZHEN UNIVERSITY, priority 2020, dated 2025):
Like-named read-outs stand apart in the source and are kept apart here.

Legend:
Assay type in all cases: cell-based
TLR7 = biological target: T1, TLR7 (Homo sapiens, UniProt Q9NYK1); test: Detection of TLR7 activation (HEK-Blue Detection), SEAP reporter; conditions: HEK-Blue hTLR7 cells, 6-16 hrs, absorbance 650 nm; read-out: TLR7(EC50/μM)
T1 construct: host or cells: HEK-Blue hTLR7 cells (HEK293-derived SEAP reporter line)
T1 sequence (Q9NYK1 27-1049): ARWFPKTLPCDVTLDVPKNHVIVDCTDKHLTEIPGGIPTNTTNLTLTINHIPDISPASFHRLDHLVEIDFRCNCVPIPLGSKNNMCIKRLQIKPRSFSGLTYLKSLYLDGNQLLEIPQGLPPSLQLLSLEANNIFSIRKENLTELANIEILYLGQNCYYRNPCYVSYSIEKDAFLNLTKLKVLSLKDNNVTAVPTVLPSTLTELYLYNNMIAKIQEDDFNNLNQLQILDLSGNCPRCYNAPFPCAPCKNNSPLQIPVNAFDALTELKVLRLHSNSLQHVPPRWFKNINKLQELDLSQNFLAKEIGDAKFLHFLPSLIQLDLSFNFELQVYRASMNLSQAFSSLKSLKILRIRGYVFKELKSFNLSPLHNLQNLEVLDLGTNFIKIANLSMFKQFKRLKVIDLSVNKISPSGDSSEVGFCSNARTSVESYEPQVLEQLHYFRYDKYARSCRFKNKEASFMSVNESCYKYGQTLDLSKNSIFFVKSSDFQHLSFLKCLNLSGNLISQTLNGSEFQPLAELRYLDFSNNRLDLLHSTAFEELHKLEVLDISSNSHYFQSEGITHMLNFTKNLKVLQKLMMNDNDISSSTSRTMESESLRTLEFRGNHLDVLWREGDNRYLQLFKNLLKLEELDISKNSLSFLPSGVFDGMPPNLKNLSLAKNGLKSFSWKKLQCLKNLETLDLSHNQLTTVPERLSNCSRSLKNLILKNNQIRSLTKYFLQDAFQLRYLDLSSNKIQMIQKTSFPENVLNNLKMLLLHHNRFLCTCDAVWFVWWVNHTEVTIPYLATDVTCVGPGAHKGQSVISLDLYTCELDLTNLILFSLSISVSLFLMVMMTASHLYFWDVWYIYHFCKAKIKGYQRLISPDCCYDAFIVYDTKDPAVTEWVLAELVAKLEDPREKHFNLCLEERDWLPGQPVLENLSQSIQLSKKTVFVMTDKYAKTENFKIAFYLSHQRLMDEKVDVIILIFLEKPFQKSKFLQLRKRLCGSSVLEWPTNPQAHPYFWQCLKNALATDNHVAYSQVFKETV
Experimental: HEK-Blue™hTLR7 cells (purchased from InvivoGen) in a logarithmic growth phase were taken, with a growth medium (Gibco, C11995500BT, Invivo Gen, ant-nr) discarded. The cells were gently rinsed twice by an appropriate amount of 37° C. PBS (Hyclone, SH30256.01), a rinsed PBS was discarded. Thereafter, the cells were added with 2-5 mL of 37° C. PBS, incubated for 1 to 2 minutes, and then scraped by a cell scraper and gently pipetted to be dispersed into a single cell suspension. A hemocytometer was adopted to count the cells and a cell concentration was calculated. After that, a HEK-Blue™ Detection solution (purchased from Invivo Gen) was adopted to adjust the cell concentration of the cell suspension to 2.5×10^4/180 μL per well for cell plating on a 96-well cell culture plate. The HEK-Blue™hTLR7 cells were stimulated according to the designed series of GY compound or drug concentrations (0.01 μM, 0.1 μM, 1 μM, 5 μM, 15 μM, and 30 μM), with 3 replicate wells for each concentration, and were incubated at 37° C., 5% carbon dioxide for 6-16 hrs. After the incubation, the absorbance value was read at 650 nm with a full-wavelength microplate reader (BioTek-Epoch), as listed in Table 2.
Relative induction=(average OD value of experimental group−average OD value of negative control group)/average OD value of negative control group.
Specific details for the above method may be referred to https: • //www.invivogen.com/hek-blue-htlr7; https://www.invivogen.com/sites/default/files/invivogen/products/files/hek_blue_htlr7_tds.pdf.

[1] = tested on: human lymphoma Raji cells; test: CCK8 growth inhibition, Raji; conditions: CCK8 method, read-out: IC50 of inhibitory activity on tumor cell growth, Raji
[2] = tested on: human lymphoma Daudi B cells; test: CCK8 growth inhibition, Daudi B; conditions: CCK8 method, read-out: IC50 of inhibitory activity on tumor cell growth, Daudi B
[3] = tested on: murine leukemia WEHI-3 cells; test: CCK8 growth inhibition, WEHI-3; conditions: Mus musculus, CCK8 method, read-out: IC50 of inhibitory activity on tumor cell growth, WEHI-3
[4] = tested on: murine spleen lymphocytes; test: Cytokine stimulation of murine spleen lymphocytes, ELISA; conditions: mouse immune cells (spleen lymphocytes), 24 hrs, ELISA; for EC50: Lymphocyte
Experimental: The stimulating effect of a series of GY compounds or drugs on murine spleen lymphocytes was detected by ELISA.
6-week-old Balb/c mice were sacrificed by cervical dislocation, spleens were taken under aseptic conditions. A 1 mL sterile syringe and a 200 mesh cell strainer were adopted to quickly grind and disperse the spleen into individual cells in 4 mL of a murine lymphocyte separation solution (Dakko's, 7211011). A resulting cell homogenate was transferred to a 15 mL centrifuge tube, then 1 mL of a RPMI 1640 medium (Hyclone, SH30809.01) was slowly added. Spleen lymphocytes were separated by a density gradient centrifugation method (800×g, 30 min), washed, red blood cells therein were lysed, such that a dispersed spleen lymphocyte suspension was obtained. Cells were counted by a hemocytometer, to calculate the cell concentration. A RPMI 1640 complete medium was adopted to adjust the cell suspension to a concentration of 1×10^6/ml/well, and the cells were then plated on a 24-well cell culture plate (Corning, 3524).
Murine spleen lymphocytes were stimulated according to the gradient concentrations of the series of GY compounds or drugs, and incubated in a 37° C., 5% carbon dioxide incubator for 24 hrs.
• (1) Coating: a Capture antibody (primary antibody, purchased from Invitrogen) was diluted with a 1×Coating Buffer (coating buffer, purchased from Invitrogen) to a recommended concentration, and 100 μL of a resulting diluted solution was added to each well of a 96-well microtiter plate, the plate was sealed with a sealing film at 4° C. overnight. • (2) Washing: a liquid in each well was discarded, then 300 μL of a PBST working solution was added to each well and kept for 1 min, thereafter, the liquid therein was discarded. The washing process was repeated 3 times. • (3) Blocking: 200 μL of a blocking solution was added to each well. The plate was sealed with a sealing film, and placed on a shaker and incubated at room temperature for 1 hr, then washed and patted to be dry. • (4) Sample incubation: a sample was collected and centrifuged to collect a supernatant. Standards, samples, negative controls, and blank controls were provided in the 96-well microtiter plate, and each concentration or sample were provided with 2 replicates. 100 μL of a standard or sample was added to each well, thereafter, the plate was sealed with a sealing film, incubated on a shaker at room temperature for 1 hr or overnight at 4° C., then washed and pated to be dry. • (5) Secondary antibody incubation: the detection antibody (secondary antibody, purchased from Invitrogen) was diluted to a recommended concentration with a dilution buffer, 100 μL of a secondary antibody was added to each well. After being sealed with a sealing film, the plate was incubated on a shaker at room temperature for 1 hr, then washed and patted to be dry. • (6) Avidin-HRP incubation: Avidin-HRP (horseradish peroxidase marker, purchased from Invitrogen) was diluted to the recommended concentration with a dilution buffer, 100 μL of Avidin-HRP was added to each well. After being sealed with a sealing film, the plate was placed on a shaker and incubated at room temperature for 30 mins, washed 5-7 times by the process of step 2), and patted to be dry. • (7) TMB color development: 100 μL of a TMB color development solution (purchased from Invitrogen) was added to each well, for carrying out reaction for 15 mins at room temperature in the dark. • (8) Stopping reaction: 50 μL of 1M H2SO4 solution was added to each well. • (9) Reading an absorbance value by a microplate reader: the OD value at 450 nm wavelength was read. A standard curve and a parameter nonlinear regression equation were drawn, and a sample concentration was calculated according to the obtained formula.

[5] = tested on: human leukemia HL-60 cells; test: CCK8 growth inhibition, HL60; conditions: read-out: IC50 of inhibitory activity on tumor cell growth, HL60
[6] = tested on: Murine breast cancer 4T1 cells; test: CCK8 growth inhibition, 4T1; conditions: Mus musculus, CCK8 method, 24 hrs (or 36, 72 hrs), read-out: IC50 of inhibitory activity on tumor cell growth, 4T1
Experimental: Murine breast cancer 4T1 cells (Kailian Biotech, KG338) in a logarithmic growth phase were selected and washed with PBS, digested with 0.25% trypsin (including EDTA), stopped digestion with a DMEM complete medium, then centrifuged, and resuspended to form a suspension of 4T1 single cells. Cells were counted using a hemocytometer and a cell concentration was calculated. A DMEM complete medium was used to adjust the cell suspension to a target concentration, and thereafter, the cells were plated on a 96-well cell culture plate according to 4×10^3/100 μL per well. After adherering to the wall, the 4T1 cells were stimulated according to the designed concentration gradients of the series of GY compounds or drugs, with each concentration being provided with 3 replicate holes. The 96-well cell culture plate with 4T1 cells seeded and dosing was placed in the cell incubator, and incubated at 37° C., 5% carbon dioxide for 24 hrs (or 36, 72 hrs). After the incubation time was over, 10 μL of CCK8 reagent was added to each well and incubated for 1-2 hrs at 37° C. A full-wavelength microplate reader was adopted to test an OD value at 450 nm wavelength.
CCK8 calculation formula is as follows: • Cell survival rate (100%)=[…]/(Ac−Ab)×100% • As: Absorbance of wells containing cells, CCK8 solution, and drug solution • Ac: Absorbance of wells containing cells and CCK8 solution, and no drug solution • Ab: Absorbance of wells containing CCK8 solution, no cells, and no drug solution
Cell growth inhibition rate (%)=1−((OD value of experimental group−OD value of blank group)/(OD value of control group−OD value of blank group)×100%).

[7] = tested on: human leukemia K562 cells; test: CCK8 growth inhibition, K562; conditions: CCK8 method, read-out: IC50 of inhibitory activity on tumor cell growth, K562
[8] = tested on: murine colon cancer CT-26 cells; test: CCK8 growth inhibition, CT26; conditions: Mus musculus, CCK8 method, read-out: IC50 of inhibitory activity on tumor cell growth, CT26
HEK293T cells = test: CCK8 growth inhibition, HEK-293T; conditions: Homo sapiens, CCK8 method, read-out: IC50 of inhibitory activity on cell growth, HEK-293T
black melanoma B16 cells = test: CCK8 growth inhibition, B16; conditions: Mus musculus, CCK8 method, read-out: IC50 of inhibitory activity on tumor cell growth, B16
A549 = test: CCK8 growth inhibition, A549; conditions: Homo sapiens, CCK8 method, read-out: IC50 of inhibitory activity on tumor cell growth, A549
MB231 = test: CCK8 growth inhibition, MB231; conditions: CCK8 method; read-out: IC50 of inhibitory activity on tumor cell growth, MB231
[9] = read-out: TNF-alpha EC50 of cytokine stimulating activity
[10] = Homo sapiens, HL-60, CCK8 method

How did the EC50 (TLR7) turn out when C=C(CC(=O)NCCOCCOCCOCCn1cc(Cn2c(O)nc3c(N)nc(OCCCC)nc32)nn1)C(=O)N1CCC(C2CCNc3c(C(N)=O)c(-c4ccc(Oc5ccccc5)cc4)nn32)CC1 (single isomer, unassigned) [GY132] was run?
Its EC50 is 5.42 µM.

What about the IC50 [1] of the same molecule?
The IC50 was 2.03 µM.

And the IC50 [2]?
Its IC50 is 5.36 µM.

And the IC50 [3]?
Its IC50 is 14.7 µM.

What about the EC50 [4, 9] of the same molecule?
The EC50 was 2.15 µM.

What about the “IFN-gamma EC50 of cytokine stimulating activity” value [4] of the same molecule?
The value was “No fit”.

What about the “IL-6 EC50 of cytokine stimulating activity” value [4] of the same molecule?
Its value is “No fit”.

What about the IC50 ([5]; CCK8 method) of the same molecule?
The IC50 was 5.13 µM.

C=C(CC(=O)NCCOCCOCCOCCn1cc(Cn2c(O)nc3c(N)nc(OCCCC)nc32)nn1)C(=O)N1CCC[C@@H](n2nc(-c3ccc(Oc4ccccc4)cc3)c3c(N)ncnc32)C1 [GY131] was tested. Which EC50 (TLR7) did it give?
Its EC50 is 4.97 µM.

And the IC50 ([1]; Homo sapiens, Raji)?
The IC50 was 10.4 µM.

What about the IC50 ([2]; Homo sapiens, Daudi) of the same molecule?
The IC50 was 14.1 µM.

And the IC50 [3]?
The IC50 was 7.38 µM.

And the IC50 [6]?
Its IC50 is 2.86 µM.

What about the IC50 [7] of the same molecule?
The IC50 was 92.1 µM.

What about the IC50 [8] of the same molecule?
Its IC50 is 166 µM.

What about the IC50 (HEK293T cells) of the same molecule?
Its IC50 is 25.1 µM.

And the IC50 (black melanoma B16 cells)?
The IC50 was 40.7 µM.

And the IC50 [5, 10]?
Its IC50 is 92.1 µM.

CCCCOc1nc(N)c2nc(O)n(Cc3cn(CCOCCOCCOCCN4CCN(CCCNC(=O)CC5N=C(c6ccc(Cl)cc6)c6c(sc(C)c6C)-n6c(C)nnc65)CC4)nn3)c2n1 (stereo not shown) [GY118] was tested. Which IC50 (A549) did it give?
Its IC50 is 16.6 µM.

And the IC50 [6]?
Its IC50 is 14.7 µM.

And the IC50 (MB231)?
Its IC50 is 5.8 µM.

And the IC50 [5, 10]?
The IC50 was 15.1 µM.

With CCCCOc1nc(N)c2nc(O)n(Cc3cn(CCOCCOCCOCC(=O)N4CCN(C/C=C/C(=O)N5CCCC(n6nc(-c7ccc(Oc8ccccc8)cc7)c7c(N)ncnc76)C5)CC4)nn3)c2n1 (stereo not shown) [GY138] as the molecule, how does the IC50 [3] read?
The IC50 was 47.6 µM.

How did the IC50 [3] turn out when C=C(CC(=O)N1CCC(C2CCN=C3C(C(N)=O)=C(c4ccc(Oc5ccccc5)cc4)NN32)CC1)C(=O)NCCOCCOCCOCCn1cc(Cn2c(O)nc3c(N)nc(OCCCC)nc32)nn1 (stereo not shown) [GY150] was run?
Its IC50 is 22.3 µM.

Which IC50 (A549) does the source give for CCCCOc1nc(N)c2nc(O)n(Cc3cn(CCOCCOCCOCC(=O)Nc4cc(Nc5nccc(-c6cn(C)c7ccccc67)n5)c(OC)cc4N(C)CCN(C)C)nn3)c2n1 [GY104] here?
Its IC50 is 17.1 µM.

And the EC50 ([4]; read-out: IL-6 EC50 of cytokine stimulating activity)?
Its EC50 is 27.7 µM.

And the EC50 [4, 9]?
Its EC50 is 34.7 µM.

And the “IFN-gamma EC50 of cytokine stimulating activity” value [4]?
Its value is “No fit”.
